From US10047087B2, “Substituted pyrazolo[1,5-A] pyridine as tropomyosin receptor kinase (TrK) inhibitors” (Dr. Reddy's Laboratories Ltd., priority 2011, dated 2018) come the findings set out here.

pIC50: −log10 of the molar value.

T1 sequence (P04629 33-796): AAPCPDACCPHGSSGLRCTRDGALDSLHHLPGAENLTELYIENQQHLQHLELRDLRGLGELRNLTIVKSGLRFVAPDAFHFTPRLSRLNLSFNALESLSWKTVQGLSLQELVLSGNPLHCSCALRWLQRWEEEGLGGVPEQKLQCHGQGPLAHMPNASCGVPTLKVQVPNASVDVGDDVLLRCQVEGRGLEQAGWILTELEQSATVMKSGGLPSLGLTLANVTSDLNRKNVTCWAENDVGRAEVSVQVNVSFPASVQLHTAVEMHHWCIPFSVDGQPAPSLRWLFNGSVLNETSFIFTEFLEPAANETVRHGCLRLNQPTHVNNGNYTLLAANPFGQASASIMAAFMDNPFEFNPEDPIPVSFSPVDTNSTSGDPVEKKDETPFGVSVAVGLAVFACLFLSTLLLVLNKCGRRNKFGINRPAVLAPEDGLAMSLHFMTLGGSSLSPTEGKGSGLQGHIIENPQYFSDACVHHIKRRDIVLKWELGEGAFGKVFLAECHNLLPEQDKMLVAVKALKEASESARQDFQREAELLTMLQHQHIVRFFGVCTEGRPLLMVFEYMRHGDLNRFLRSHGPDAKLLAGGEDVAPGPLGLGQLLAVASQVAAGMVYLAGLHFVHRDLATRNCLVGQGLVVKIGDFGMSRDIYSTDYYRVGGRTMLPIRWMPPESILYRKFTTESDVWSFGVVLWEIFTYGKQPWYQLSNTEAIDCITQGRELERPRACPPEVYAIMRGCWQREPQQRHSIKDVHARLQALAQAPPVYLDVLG

The first test addresses T1, TrkA kinase (Homo sapiens, UniProt P04629).
T1 construct: purchased Upstate, USA
In words: In vitro TrkA inhibitory activity using TR-FRET assay. The settings on record: 5 ng TrkA, 500 μM ATP, both bounds given in nm, read-out: TrkA inhibitory activity in-vitro IC50. The class given is biochemical. On the procedure:
Determination of In Vitro TrkA Inhibitory Activity Using TR-FRET Assay
Compounds were screened in the TR-FRET assay with TrkA kinase. 5 ng of TrkA [Upstate, USA] kinase was used for assay. The compound was incubated with the kinase for 30 minutes at 20-35° C. After the incubation, substrate mix [40 nM Ultra light poly GT (Perkin Elmer, USA) and 500 μM ATP] was added. The above reaction was stopped by the addition of 40 mM EDTA after 30 minutes. The Eu-labelled antiphospho-tyrosine antibody [Perkin Elmer, USA] was added at 0.5 nM and the fluorescence emission at 615 nm/665 nm [excitation at 340 nm] was measured. The compounds were initially screened at 100 nM, 1 μM and 10 μM concentrations. The potent compounds with >25% inhibition at 1 μM of TrkA were taken for the full dose response studies. The final DMSO concentration in the assay was […]. For IC50 determination, ⅓^rd serial dilution was made from the 20 mM DMSO stock solution. 2 μl of these were transferred to the test wells containing 20 μl reaction mixture [Total reaction volume 22 μl]. The fluorescence was measured in Perkin Elmer Wallac 1420 Multilabel Counter Victor 3. The IC50 was determined by fitting the dose response data to a sigmoidal curve fitting equation using GraphPad Prism software version 5.
As for `O=C(NS(=O)(=O)c1ccc(-n2cncn2)nc1)c1cnn2ccc(N3CCC[C@@H]3c3cc(F)cc(F)c3)cc12` [Example 72, (R)-N-((6-(1H-1,2,4-triazol-1-yl)pyridin-3-yl)sulfonyl)-5-(2-(3,5-difluorophenyl)pyrrolidin-1-yl)pyrazolo[1,5-a]pyridine-3-carboxamide], the negative logarithm of the IC50 (pIC50) was 6.30 to 7.00.
Take `CC(C)(C)S(=O)(=O)NC(=O)c1cnn2ccc(N3CCC[C@@H]3c3cc(F)cc(F)c3)cc12` [Example 66, (R)-N-(tert-butylsulfonyl)-5-(2-(3,5-difluorophenyl)pyrrolidin-1-yl)pyrazolo[1,5-a]pyridine-3-carboxamide]: the pIC50 is 6.30 to 7.00.
As for `O=C(NS(=O)(=O)c1cc(Cl)sc1Cl)c1cnn2ccc(N3CCC[C@@H]3c3cc(F)ccc3F)cc12` [Example 32, (R)-N-((2,5-dichlorothiophen-3-yl)sulfonyl)-5-(2-(2,5-difluorophenyl)pyrrolidin-1-yl) pyrazolo[1,5-a]pyridine-3-carboxamide], the negative logarithm of the IC50 (pIC50) is 6.30 to 7.00.
As for `Cc1noc(C)c1S(=O)(=O)NC(=O)c1cnn2ccc(N3CCC[C@@H]3c3cc(F)ccc3F)cc12` [Example 11, (R)-5-(2-(2,5-difluorophenyl)pyrrolidin-1-yl)-N-((3,5-dimethylisoxazol-4-yl)sulfonyl) pyrazolo[1,5-a]pyridine-3-carboxamide], the pIC50 was 6.30 to 7.00.
With `O=C(NS(=O)(=O)C1CC1)c1cnn2ccc(N3CCC[C@@H]3c3cc(F)ccc3F)cc12` [Example 5, (R)-N-(cyclopropylsulfonyl)-5-(2-(2,5-difluorophenyl)pyrrolidin-1-yl)pyrazolo[1,5-a]pyridine-3-carboxamide], the pIC50 is 6.30 to 7.00.
Take `CC(C)(C)S(=O)(=O)NC(=O)c1cnn2ccc(N3CCC[C@@H]3c3cc(F)cc4c3OCCO4)cc12` [Example 130, Sodium (R)-(tert-butylsulfonyl)(5-(2-(7-fluoro-2,3-dihydrobenzo[b][1,4]dioxin-5-yl)pyrrolidin-1-yl)pyrazolo[1,5-a]pyridine-3-carbonyl)amide]: the negative-log IC50 (pIC50) is 6.30 to 7.00.
As for `Cc1nc(C)c(S(=O)(=O)NC(=O)c2cnn3ccc(N4CCC[C@@H]4c4cc(F)ccc4F)cc23)s1` [Example 20, (R)-5-(2-(2,5-difluorophenyl)pyrrolidin-1-yl)-N-((2,4-dimethylthiazol-5-yl)sulfonyl) pyrazolo[1,5-a]pyridine-3-carboxamide], the negative logarithm of the IC50 (pIC50) is 6.30 to 7.00.
With `CC(C)(C)CS(=O)(=O)NC(=O)c1cnn2ccc(N3CCC[C@@H]3c3cc(F)ccc3F)cc12` [Example 37, (R)-5-(2-(2,5-difluorophenyl)pyrrolidin-1-yl)-N-(neopentylsulfonyl) pyrazolo[1,5-a]pyridine-3-carboxamide], the pIC50 is 6.30 to 7.00.
As for `CC(C)(C)S(=O)(=O)NC(=O)c1cnn2ccc(N3CC(F)(F)CC3c3cc(F)ccc3F)cc12` (single isomer, unassigned) [Example 56], the pIC50 is 6.30 to 7.00.
In the case of `CC(C)CS(=O)(=O)NC(=O)c1cnn2ccc(N3CCC[C@@H]3c3cc(F)ccc3F)cc12` [Example 14, (R)-5-(2-(2,5-difluorophenyl)pyrrolidin-1-yl)-N-(isobutylsulfonyl)pyrazolo[1,5-a] pyridine-3-carboxamide], the pIC50 was 6.30 to 7.00.

The same test, now with this note: 5 ng TrkA, 500 μM ATP, lower bound in nm [sic], upper bound in μM, read-out: TrkA inhibitory activity in-vitro IC50.
With `CC(C)(C)S(=O)(=O)NC(=O)c1cnn2ccc(N3C[C@H](F)C[C@@H]3c3cc(F)ccc3F)cc12` [Example 58, N-(tert-butylsulfonyl)-5-((2R,4R)-2-(2,5-difluorophenyl)-4-fluoropyrrolidin-1-yl) pyrazolo[1,5-a]pyridine-3-carboxamide], the IC50 fell in the range of 0.5 to 1 µM.
With `Cc1nc(S(=O)(=O)NC(=O)c2cnn3ccc(N4CCC[C@@H]4c4cc(F)ccc4F)cc23)cn1C` [Example 15, (R)-5-(2-(2,5-difluorophenyl)pyrrolidin-1-yl)-N-((1,2-dimethyl-1H-imidazol-4-yl)sulfonyl)pyrazolo[1,5-a] pyridine-3-carboxamide], the IC50 was 0.5 to 1 µM.
As for `O=C(NS(=O)(=O)c1cccnc1)c1cnn2ccc(N3CCC[C@@H]3c3cc(F)ccc3F)cc12` [Example 30, (R)-5-(2-(2,5-difluorophenyl)pyrrolidin-1-yl)-N-(pyridin-3-ylsulfonyl)pyrazolo[1,5-a]pyridine-3-carboxamide], the IC50 is 0.5 to 1 µM.
Regarding `CC(C)(C)S(=O)(=O)NC(=O)c1cnn2ccc(N3C[C@H](O)C[C@@H]3c3cc(F)ccc3F)cc12` [Example 48, N-(tert-butylsulfonyl)-5-((2R,4R)-2-(2,5-difluorophenyl)-4-hydroxypyrrolidin-1-yl)pyrazolol[1,5-a]pyridine-3-carboxamide], the half-maximal inhibitory concentration (IC50) fell in the range of 0.5 to 1 µM.

The test is the same for the next values; noted with them: 5 ng TrkA, 500 μM ATP, read-out: TrkA inhibition in-vitro IC50.
Consider `CC1(S(=O)(=O)NC(=O)c2cnn3ccc(N4CCC[C@@H]4c4cc(F)ccc4F)cc23)CC1` [Example 134, Sodium (R)-(5-(2-(2,5-difluorophenyl)pyrrolidin-1-yl)pyrazolo[1,5-a]pyridine-3-carbonyl)((1-methylcyclopropyl)sulfonyl)amide], for which the negative logarithm of the IC50 (pIC50) is 7.00 to 7.30.
On to `CC(C)(C)S(=O)(=O)NC(=O)c1cnn2ccc(N3CCC[C@@H]3c3cc(F)ccc3Cl)cc12` [Example 47, (R)-N-(tert-butylsulfonyl)-5-(2-(2-chloro-5-fluorophenyl)pyrrolidin-1-yl)pyrazolo[1,5-a]pyridine-3-carboxamide], for which the pIC50 was 7.00 to 7.30.
As to `CCN(C)S(=O)(=O)NC(=O)c1cnn2ccc(N3CCC[C@@H]3c3cc(F)cc(F)c3OCCF)cc12` [Example 94, (R)-5-(2-(3,5-difluoro-2-(2-fluoroethoxy)phenyl)pyrrolidin-1-yl)-N-(N-ethyl-N-methylsulfamoyl)pyrazolo[1,5-a]pyridine-3-carboxamide], the negative logarithm of the IC50 (pIC50) was ≥ 7.30.
With `CC(C)(C)S(=O)(=O)NC(=O)c1cnn2ccc(N3C[C@@H](F)C[C@@H]3c3cccc(F)c3)c(F)c12` [Example 137, Sodium (tert-butylsulfonyl)(4-fluoro-5-((2R,4S)-4-fluoro-2-(3-fluorophenyl)pyrrolidin-1-yl)pyrazolo[1,5-a]pyridine-3-carbonyl)amide], the pIC50 is ≥ 7.30.
On to `O=C(NS(=O)(=O)N1CCCCC1)c1cnn2ccc(N3CCC[C@@H]3c3cc(F)ccc3F)cc12` [Example 89, (R)-5-(2-(2,5-difluorophenyl)pyrrolidin-1-yl)-N-(piperidin-1-ylsulfonyl)pyrazolo[1,5-a] pyridine-3-carboxamide], for which the pIC50 is ≥ 7.30.
As to `CC(C)(C)S(=O)(=O)NC(=O)c1cnn2ccc(N3C[C@@H](F)C[C@@H]3c3cc(F)ccc3F)cc12` [Example 128, Sodium (tert-butylsulfonyl)(5-((2R,4S)-2-(2,5-difluorophenyl)-4-fluoropyrrolidin-1-yl)pyrazolo[1,5-a]pyridine-3-carbonyl)amide], the pIC50 was ≥ 7.30.

The same test, now with this note: 5 ng TrkA, 500 μM ATP, read-out: TrkA inhibitory activity in-vitro IC50.
For the molecule `CC(C)(C)S(=O)(=O)NC(=O)c1cnn2ccc(N3C[C@@H](F)CC3c3cc(F)ccc3F)cc12` (single isomer, unassigned) [Example 53], the pIC50 is 5.00 to 6.00.
Same read-out and setting: under `O=C(NS(=O)(=O)C1CCNCC1)c1cnn2ccc(N3CCC[C@@H]3c3cc(F)ccc3F)cc12` [Example 17, (R)-5-(2-(2,5-difluorophenyl)pyrrolidin-1-yl)-N-(piperidin-4-ylsulfonyl)pyrazolo[1,5-a] pyridine-3-carboxamide] stands 5.00 to 6.00; under `CC(C)(C)S(=O)(=O)NC(=O)c1cnn2ccc(N3CC(F)(F)CC3c3cc(F)ccc3F)cc12` (single isomer, unassigned) [Example 55], 5.00 to 6.00.

As usually defined, the pIC50 is the IC50 on a negative log10 scale, so that one unit is a factor of ten. As usually defined, the IC50 is the concentration that inhibits the measured activity by half.
